Key:
synthetic viral protease = target: T1, synthetic viral protease (Human immunodeficiency virus type 1 group M subtype B, UniProt P03366); experiment: Inhibition of beta-casein hydrolysis by synthetic viral protease (14C-beta-casein, TCA soluble counts); type: biochemical, HIV; details: 14C-beta-casein substrate, 4 hours
T1 construct: amino acid residues 69-167 of the pol open reading frame in Ratner, L. et al, Nature, 313, 277 (1985); made in house; host or cells: chemical synthesis (Merrifield solid-phase), no expression host
Procedure: Inhibition of the synthetic viral protease reaction, of Example 2, with ¹⁴C - beta-casein as substrate in lieu of peptide substrates, was performed. Beta-casein (Sigma) was dialysed overnight at 4°C in 40 mM KPO₄, pH 7.0. Four microliters of the substrate (0.31 mg/ml) are used in each 40 µl reaction. After reaction with the protease for 4 hours, 10 µl of 10% bovine serum albumin and 500 µl of 10% trichloroacetic acid are added, the sample placed on ice for 30 min and centrifuged for 10 min at 15,000 g. From the supernatant a 300 µl aliquot is withdrawn and diluted into 7 ml liquid scintillation cocktail. Typical background level of TCA soluble counts (no enzyme added) is 200 and no inhibitor samples give a net signal of 1000 cpm.

[1] = target: T2, synthetic protease [amino acid residues 69-167 of the pol open reading frame] (Human immunodeficiency virus type 1 group M subtype B, UniProt P03366); experiment: Assay for inhibition of synthetic viral protease with peptide substrate Val-Ser-Gln-Asn-Tyr-Pro-Ile-Val (HPLC); type: biochemical, HIV; details: pH 5.5, 30°C, 1 hr
T2 construct: amino acid residues 69-167 of the pol open reading frame in Ratner, L. et al, Nature, 313, 277 (1985); made in house; host or cells: chemical synthesis (Merrifield solid-phase), no expression host
Procedure: Inhibition studies of the reaction of the synthetic protease [amino acid residues 69-167 of the pol open reading frame in Ratner, L. et al, Nature, 313, 277 (1985) and synthesized by Merrifield solid-phase synthesis] with a peptide substrate [Val-Ser-Gln-Asn-Tyr-Pro-Ile-Val, 2 mg/mL when the reaction is initiated] were in 50 mM Na acetate, pH 5.5, at 30°C for 1 hr. Various concentrations of inhibitor in 1.0 µl DMSO were added to 36 µl of assay solution and the reaction initiated by the addition of 4 ul (1.6 µg) of synthetic protease. The reaction was quenched with 160 ul of 12% acetic acid. Products of the reaction were separated by HPLC (VYDAC wide pore 5 cm C-18 reverse phase, acetonitrile gradient, 0.1% trifluoroacetic acid). The extent of inhibition of the reaction was determined from the peak heights of the products. HPLC of the products, independently synthesized, provided quantitation standards and confirmation of the product composition.

[2] = Inh. Conc. 0.01 µM, listed as Cmpd A
[3] = Inh. Conc. 0.1 µM, listed as Cmpd A
[4] = Inh. Conc. 1 µM, listed as Cmpd A
[5] = Inh. Conc. 0.01 µM, listed as Cmpd B
[6] = Inh. Conc. 0.1 µM, listed as Cmpd B
[7] = Inh. Conc. 1 µM, listed as Cmpd B

SMILES | PERCENT INHIBITION (synthetic viral protease; [2]) [%] | PERCENT INHIBITION (synthetic viral protease; [3]) [%] | PERCENT INHIBITION (synthetic viral protease; [4]) [%] | PERCENT INHIBITION (synthetic viral protease; Inh. Conc. 10 µM, listed as Cmpd A) [%] | PERCENT INHIBITION (synthetic viral protease; Inh. Conc. 100 µM, listed as Cmpd A) [%] | PERCENT INHIBITION [1, 2] [%] | PERCENT INHIBITION [1, 3] [%] | PERCENT INHIBITION [1, 4] [%] | PERCENT INHIBITION ([1]; Inh. Conc. 100 µM) [%] | PERCENT INHIBITION (synthetic viral protease; Inh. Conc. 0.001 µM) [%] | PERCENT INHIBITION (synthetic viral protease; [5]) [%] | PERCENT INHIBITION (synthetic viral protease; [6]) [%] | PERCENT INHIBITION (synthetic viral protease; [7]) [%] | PERCENT INHIBITION (synthetic viral protease; Inh. Conc. 10 µM, listed as Cmpd B) [%] | PERCENT INHIBITION (synthetic viral protease; Inh. Conc. 100 µM, listed as Cmpd B) [%] | PERCENT INHIBITION ([1]; Inh. Conc. 0.001 µM) [%] | PERCENT INHIBITION [1, 5] [%] | PERCENT INHIBITION [1, 6] [%] | PERCENT INHIBITION [1, 7] [%] | PERCENT INHIBITION ([1]; Inh. Conc. 10 µM) [%]
CC(C)C[C@H](NC(=O)C(Cc1ccccc1)C[C@H](O)[C@H](Cc1ccccc1)NC(=O)[C@H](Cc1ccccc1)NC(=O)[C@H](Cc1ccccc1)NC(=O)OC(C)(C)C)C(=O)N[C@@H](Cc1ccccc1)C(N)=O (single isomer, unassigned) [A, N′-(1,1-Dimethylethoxycarbonyl)-Phe-Phe-5(S)-Amino-4(S)-Hydroxy-6-Phenyl-2(R or S)-(Phenylmethyl)Hexanoyl-Leu-Phe-Amide] | 0 | 14 | 82 | 65 | 97 | 0 | 20 | 40 | 100 |  |  |  |  |  |  |  |  |  |  | 
CC(C)C[C@H](NC(=O)C(Cc1ccccc1)C[C@H](O)[C@H](Cc1ccccc1)NC(=O)[C@H](Cc1ccccc1)NC(=O)[C@H](Cc1ccccc1)NC(=O)OC(C)(C)C)C(=O)N[C@@H](Cc1ccccc1)C(N)=O (single isomer, unassigned) [Compound B, N′-(1,1-Dimethylethoxycarbonyl)-Phe-Phe-5(S)-Amino-4(S)-Hydroxy-6-Phenyl-2(S or R)-(Phenylmethyl)Hexanoyl-Leu-Phe-Amide] |  |  |  |  |  |  |  |  | 100 | 20 | 67 | 97 | 95 | 91 | 60 | 20 | 60 | 100 | 100 | 100

Reference: patent EP0357332A2, “Renin inhibitors useful for the treatment of aids by inhibition of HIV protease” (MERCK & CO. INC., priority 1988, dated 1990)
